Drawing on patent US10047081B2, “BACE1 inhibitors” (Hoffmann-La Roche Inc., priority 2015, dated 2018), this text covers in vivo effect, GSH human and IC50 for four compounds.

Data set [1] deals with Aβ40 in brain. The data set is described as follows: Lowering of Aβ40 in brain of wild-type mice. The data set is classed as in vivo. To be noted: brain Aβ40 as % of control (vehicle group), 30 mg/kg per os, mouse, after 4 h. How it is done:
Lowering of Aβ40 in Brain of Wild-Type Mice:
Animals and Housing Conditions.
Animals were maintained in a 12/12 h light/dark cycle, with lights starting at 6 a.m., and experiments were conducted during the light phase. Animal housing and experimental procedures were in line with ethical and legal guidelines and were authorized by local veterinary authorities.
Female C57B1/6J mice were treated with a dose of 30 mg/kg of the compounds, 3-4 animals per treatment group. The test compound was dissolved in 5% EtOH, 10% Solutol, and was applied per os at 10 mL/kg. After 4 h, the animals were sacrificed and brain and plasma were collected. The brain was cut into halves and immediately frozen on dry ice. Brain was used for measurement of Aβ40 and plasma was used for determination of compound exposure. […] Brain tissue was homogenized in 2% DEA buffer in a Roche MagnaLyser (20″, 4000 rpm) and subsequently centrifuged for 1 h at 100000 g. DEA was reduced to 0.2% in 50 mM NaCl and one-half of the DEA lysate was passed over an Oasis Solid phase extraction plate (Waters; cat. no. 186000679), which had been activated with MeOH and equilibrated in dH2O (1 mL each). After washes in 10% and 30% MeOH (1 mL each), the Aβ-peptides were eluted in 0.8 mL of 2% NH4OH in 90% MeOH. The eluate was dried over a N2 flow, and the dried sample was reconstituted in 30 μL of AlphaLISA assay buffer. Aβ40 was determined by an AlphaLISA assay (Perkin-Elmer). In a white 96-well, half area microplate (Perkin-Elmer cat. no. 6005561), 20 μL of the reconstituted sample were mixed with 5 μL of biotinylated BAP-24 (specific for C-terminus of Aβ40) (Brockhaus, M.; Grunberg, J.; Rohrig, S.; Loetscher, H.; Wittenburg, N.; Baumeister, R.; Jacobsen, H.; Haass, C. Caspasemediated cleavage is not required for the activity of presenilins in amyloidogenesis and NOTCH signaling. NeuroReport 1998, 9, 1481-1486) stock=4.4 mg/mL, f.c.5.5 μg/mL), and 5 μL 252Q6 acceptor beads (252Q6 antibody, Invitrogen AMB0062) had been previously conjugated with AlphaLISA Acceptor beads (Perkin-Elmer cat. no. 6772002); final dilution 1:500). The mix was incubated for 1 h at RT in the dark. Then 20 μL of Streptavin-coated Donor Beads (Perkin-Elmer cat. no. 6760002, final dilution 1:125) were added and this final mix was incubated in the dark for another 30 min at RT before RFU was measured in an AlphaScreen Reader (Perkin-Elmer Envision 2104). The value obtained for Ap40 in the treated animals was related to the value in the vehicle group and is given in %. Alternatively a commercial ELISA was used for Aβ40 determination (Wako ELISA: (“Human/Rat β Amyloid (40) ELISA kit Wako II”; cat nr. 294-64701) following the manufacture's instruction. Also here the Aβ-lowering efficacy was calculated as percentage of the vehicle group.

Data set [2] can be described thus: GSH human, in vitro adduct formation. Type of data set: in vitro ADME. Details: key: NF = in vitro no significant adduct formation relative to control. Particulars: in vitro adduct formation relative to control.
The target in data set [3] is T1, cathepsin D (from human liver) (Homo sapiens, UniProt P07339).
T1 construct: cathepsin D (from human liver, Calbiochem) diluted in assay buffer; purchased Calbiochem; host or cells: human liver
T1 sequence (P07339 65-162 limits assumed): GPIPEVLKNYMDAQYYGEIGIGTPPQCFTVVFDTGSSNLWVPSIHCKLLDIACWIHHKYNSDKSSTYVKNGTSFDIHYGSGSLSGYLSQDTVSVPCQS
T1 sequence (P07339 169-412 limits assumed): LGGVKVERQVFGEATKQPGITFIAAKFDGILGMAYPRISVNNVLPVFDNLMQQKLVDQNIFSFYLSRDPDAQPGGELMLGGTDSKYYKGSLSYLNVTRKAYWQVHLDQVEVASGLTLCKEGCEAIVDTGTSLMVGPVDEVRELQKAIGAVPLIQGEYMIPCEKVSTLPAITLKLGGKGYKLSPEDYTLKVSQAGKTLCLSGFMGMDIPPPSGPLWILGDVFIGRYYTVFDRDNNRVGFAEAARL
The data set is described as follows: Cathepsin D fluorescent substrate kinetic assay. The data set is classed as biochemical. Particulars: pH 5.5, substrate WTSVLMAAPC-MR121. From the text: Cathepsin D and Cathepsin E Fluorescent Substrate Kinetic Assays
The MR121 fluorescence assays described below are based on the fact that MR121 forms a non-fluorescent ground state complex with tryptophan. In solution this formation occurs at millimolar concentrations of tryptophan. The mechanism can be used to design a generic biochemical assay for proteases. A substrate peptide is labeled at the N-terminus with tryptophan and at the C-terminus with the fluorophore MR121 (for cathepsin D the 10 amino acid peptide WTSVLMAAPC-MR121 was used; for cathepsin E, MR121-CKLVFFAEDW was used). In absence of protease activity, the substrates remain intact and the MR121 fluorescence is reduced by the high local Trp-concentration. If the substrates are cleaved by the enzymes the MR121 fluorescence is recovered.
The fluorescent substrate cathepsin D and cathepsin E kinetic assays were performed at room temperature in 384-well microtiter plates (black with clear flat bottom, non-binding surface plates from Corning) in a final volume of 51 μl. The test compounds were serially diluted in DMSO (15 concentrations, ⅓ dilution steps) and 1 μl of diluted compounds were mixed for 10 min with 40 μl of cathepsin D (from human liver, Calbiochem) diluted in assay buffer (100 mM sodium acetate, 0.05% BSA, pH 5.5; final concentration:200 nM) or with 40 μl of recombinant human cathepsin E (R&D Systems) diluted in assay buffer (100 mM sodium acetate, 0.05% BSA, pH 4.5; final concentration:0.01 nM). After addition of 10 μl of the cathepsin D substrate WTSVLMAAPC-MR121 diluted in cathepsin D assay buffer (final concentration:300 nM) or 10 μl of the cathepsin E substrate MR121-CKLVFFAEDW diluted in cathepsin E assay buffer (final concentration:300 nM), the plates were strongly shaken for 2 minutes. The enzymatic reaction was followed in a plate: vision reader (Perkin Elmer) (excitation wavelength:630 nm; emission:695 nm) for at least 30 minutes in a kinetic measurement detecting an increase of MR121 fluorescence during the reaction time. The slope in the linear range of the kinetic was calculated and the IC50 of the test compounds were determined using a four parameter equation for curve fitting.

As usually defined, the IC50 is the concentration needed to halve the response being measured. For the compound `CN=[S@@]1(=O)C[C@@](C)(c2cc(-c3cc(-c4cnc(OC)cn4)no3)ccc2F)N=C(N)C1(C)C` [Example 7, (1R,3R)-5-amino-3-(2-fluoro-5-(3-(5-methoxypyrazin-2-yl)isoxazol-5-yl)phenyl)-3,6,6-trimethyl-1-(methylimino)-3,6-dihydro-2H-1,4-thiazine 1-oxide 2,2,2-trifluoroacetate], the in vivo effect result in data set [1] is reported as “B (B = less than 90% of control @ 30 mg/kg mouse)”. Also, in data set [2], the GSH human result is on record as “NF”. The compound also returned a half-inhibitory concentration (IC50) in data set [3] of 37 µM.

On to `CN=[S@@]1(=O)C[C@@](C)(c2cc(-c3cc(-c4ncc(Cl)cn4)no3)ccc2F)N=C(N)C1(C)C` [Example 6, (1R,3R)-5-amino-3-(5-(3-(5-chloropyrimidin-2-yl)isoxazol-5-yl)-2-fluorophenyl)-3,6,6-trimethyl-1-(methylimino)-3,6-dihydro-2H-1,4-thiazine 1-oxide 2,2,2-trifluoroacetate], for which, in data set [1], the in vivo effect result was “A (A = less than 60% of control @ 30 mg/kg mouse)”. In addition, in data set [2], the GSH human entry was “NF”. Further, the IC50 in data set [3] was 38 µM.

`[2H]C([2H])([2H])N=[S@@]1(=O)C[C@@](C)(c2cc(-c3cc(-c4cnc(OC)cn4)no3)ccc2F)N=C(N)C1(C)C` [Example 24, (1R,3R)-3-[2-fluoro-5-[3-(5-methoxypyrazin-2-yl)isoxazol-5-yl]phenyl]-3,6,6-rimethyl-1-oxo-1-(trideuteriomethylimino)-2H-1,4-thiazin-5-amine 2,2,2-trifluoroacetate]: the in vivo effect entry in data set [1] was “A (A = less than 60% of control @ 30 mg/kg mouse)”. Half-maximal inhibition in data set [3] (IC50) was put at 39 µM.

`CN=[S@@]1(=O)C[C@@](C)(c2cc(-c3cc(-c4cnc(OCC(F)F)cn4)no3)ccc2F)N=C(N)C1(C)C` [Example 5, (1R,3R)-5-amino-3-(5-(3-(5-(2,2-difluoroethoxy)pyrazin-2-yl)isoxazol-5-yl)-2-fluorophenyl)-3,6,6-trimethyl-1-(methylimino)-3,6-dihydro-2H-1,4-thiazine 1-oxide 2,2,2-trifluoroacetate]: in data set [1], the in vivo effect entry is recorded as “A (A = less than 60% of control @ 30 mg/kg mouse)”. The GSH human entry in data set [2] was “NF”. This compound displayed a half-maximal inhibitory concentration (IC50) in data set [3] of 29 µM.
